From ChEMBL document CHEMBL5236620, “Discovery of 2-Amino-7-sulfonyl-7H-pyrrolo[2,3-d]pyrimidine Derivatives as Potent Reversible FGFR Inhibitors with Gatekeeper Mutation Tolerance: Design, Synthesis, and Biological Evaluation” (J Med Chem, 2022)
Activity calls are given as the source filed them. No cut-off for these calls is given here.

Key:
[1] = biological target: Fibroblast growth factor receptor 4 (Homo sapiens, UniProt P22455)
Description: Inhibition of FGFR4 (unknown origin) using TK as substrate incubated for 1 hr in presence of biotin/ATP by HTRF assay

Huh-7 = assay: cells; details: Homo sapiens, Huh-7, 72 h
Description: Cytotoxicity against human Huh-7 cells assessed as inhibition of cell growth incubated for 72 hrs by CellTiter-Glo assay

in vitro [2] = details: mouse, liver microsomes
Description: Metabolic stability in mouse liver microsomes assessed as intrinsic clearance pretreated for 5 mins followed by NADPH addition and measured for 45 mins by LC/MS analysis

in vitro [3] = details: mouse
Description: Metabolic stability in mouse assessed as intrinsic clearance

in vitro [4] = details: mouse, liver microsomes; remark: listed apart in the source
Description: Metabolic stability in mouse liver microsomes assessed as half life pretreated for 5 mins followed by NADPH addition and measured for 45 mins by LC/MS analysis

BaF3 [5] = assay: Cytotoxicity against mouse BaF3 cells expressing wild type TEL-fused FGFR4 assessed as inhibition of cell growth incubated for 72 hrs by CCK-8 assay; format: functional, cell-based; details: BaF3, 72 h
in vitro [6] = details: human, liver microsomes
Description: Metabolic stability in human liver microsomes assessed as half life pretreated for 5 mins followed by NADPH addition and measured for 45 mins by LC/MS analysis

in vitro [7] = details: human
Description: Metabolic stability in human assessed as intrinsic clearance

in vitro [8] = details: human, liver microsomes; remark: listed apart in the source
Description: Metabolic stability in human liver microsomes assessed as intrinsic clearance pretreated for 5 mins followed by NADPH addition and measured for 45 mins by LC/MS analysis

BaF3 [9] = assay: Cytotoxicity against mouse BaF3 cells expressing TEL-fused FGFR4 V550L mutant assessed as inhibition of cell growth incubated for 72 hrs by CCK-8 assay; format: functional, cell-based; details: BaF3, 72 h
BaF3 [10] = assay: Cytotoxicity against mouse BaF3 cells assessed as inhibition of cell growth incubated for 72 hrs by CCK-8 assay; format: functional, cell-based; details: BaF3, 72 h
[11] = biological target: Janus Kinase (JAK) (Homo sapiens) (UniProt P52333+P23458+O60674+P29597); details: dose 500.0 nM
Description: Inhibition of JAK (unknown origin) at 500 nM

[12] = biological target: Fibroblast growth factor receptor 4 (Mus musculus) (UniProt Q03142); details: BaF3, dose 50-400 nM, time 4.0 hrs
[13] = biological target: Fibroblast growth factor receptor 2 (Homo sapiens, UniProt P21802)
Description: Inhibition of FGFR2 (unknown origin) using TK as substrate incubated for 1 hr in presence of biotin/ATP by HTRF assay

[14] = biological target: Fibroblast growth factor receptor 4 (Mus musculus) (UniProt Q03142); details: BaF3, dose 50-400 nM, time 4.0 hrs; remark: listed apart in the source
[15] = biological target: Fibroblast growth factor receptor 4 (Mus musculus) (UniProt Q03142); details: BaF3, dose 50-400 nM, time 4.0 hrs; remark: listed apart in the source
[16] = biological target: Fibroblast growth factor receptor 3 (Homo sapiens, UniProt P22607)
Chain of Fibroblast growth factor receptor 3 (P22607 whole entry): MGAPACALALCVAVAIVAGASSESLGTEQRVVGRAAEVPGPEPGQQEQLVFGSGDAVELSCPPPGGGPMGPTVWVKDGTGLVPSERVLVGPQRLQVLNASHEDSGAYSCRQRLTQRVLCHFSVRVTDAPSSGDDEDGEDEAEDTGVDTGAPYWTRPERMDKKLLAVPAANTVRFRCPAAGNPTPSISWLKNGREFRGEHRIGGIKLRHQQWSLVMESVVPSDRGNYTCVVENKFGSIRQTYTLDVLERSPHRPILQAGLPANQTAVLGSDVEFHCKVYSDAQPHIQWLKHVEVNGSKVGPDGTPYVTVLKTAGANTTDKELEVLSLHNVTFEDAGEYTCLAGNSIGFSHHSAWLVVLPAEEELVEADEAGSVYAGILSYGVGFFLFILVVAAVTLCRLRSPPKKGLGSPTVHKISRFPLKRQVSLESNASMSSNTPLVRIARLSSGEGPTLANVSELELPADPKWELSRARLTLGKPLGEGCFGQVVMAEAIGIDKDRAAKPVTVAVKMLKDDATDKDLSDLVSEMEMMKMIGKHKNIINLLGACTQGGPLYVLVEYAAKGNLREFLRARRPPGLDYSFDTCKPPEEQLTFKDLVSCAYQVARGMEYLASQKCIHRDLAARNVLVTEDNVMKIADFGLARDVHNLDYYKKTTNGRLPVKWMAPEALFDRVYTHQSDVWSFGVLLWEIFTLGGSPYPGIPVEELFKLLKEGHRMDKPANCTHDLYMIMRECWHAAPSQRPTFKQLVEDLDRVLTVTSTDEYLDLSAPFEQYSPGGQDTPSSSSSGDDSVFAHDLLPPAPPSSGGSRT
Description: Inhibition of FGFR3 (unknown origin) using TK as substrate incubated for 1 hr in presence of biotin/ATP by HTRF assay

Chain of Fibroblast growth factor receptor 4 (Mus musculus) (Q03142 17-799 limits assumed): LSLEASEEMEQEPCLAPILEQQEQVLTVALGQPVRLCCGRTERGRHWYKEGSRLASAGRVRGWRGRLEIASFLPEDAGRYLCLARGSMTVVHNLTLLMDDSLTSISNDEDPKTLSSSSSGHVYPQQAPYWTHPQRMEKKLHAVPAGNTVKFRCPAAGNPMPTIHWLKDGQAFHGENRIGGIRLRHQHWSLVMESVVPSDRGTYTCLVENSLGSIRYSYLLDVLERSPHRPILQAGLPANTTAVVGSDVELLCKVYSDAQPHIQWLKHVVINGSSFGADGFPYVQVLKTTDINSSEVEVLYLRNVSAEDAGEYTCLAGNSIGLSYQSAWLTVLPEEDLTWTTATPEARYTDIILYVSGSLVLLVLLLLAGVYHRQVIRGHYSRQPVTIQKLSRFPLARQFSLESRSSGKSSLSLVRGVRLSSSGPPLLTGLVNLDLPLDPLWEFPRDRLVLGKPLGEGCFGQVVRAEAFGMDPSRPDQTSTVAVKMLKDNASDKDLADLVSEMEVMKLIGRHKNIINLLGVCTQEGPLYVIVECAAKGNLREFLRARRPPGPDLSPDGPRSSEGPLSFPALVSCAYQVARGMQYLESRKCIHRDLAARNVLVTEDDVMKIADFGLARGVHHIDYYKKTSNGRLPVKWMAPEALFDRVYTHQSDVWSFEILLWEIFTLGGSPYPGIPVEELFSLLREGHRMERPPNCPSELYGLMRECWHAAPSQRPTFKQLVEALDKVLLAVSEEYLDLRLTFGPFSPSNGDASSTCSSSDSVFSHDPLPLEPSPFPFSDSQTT
Chain of Fibroblast growth factor receptor 4 (P22455 whole entry): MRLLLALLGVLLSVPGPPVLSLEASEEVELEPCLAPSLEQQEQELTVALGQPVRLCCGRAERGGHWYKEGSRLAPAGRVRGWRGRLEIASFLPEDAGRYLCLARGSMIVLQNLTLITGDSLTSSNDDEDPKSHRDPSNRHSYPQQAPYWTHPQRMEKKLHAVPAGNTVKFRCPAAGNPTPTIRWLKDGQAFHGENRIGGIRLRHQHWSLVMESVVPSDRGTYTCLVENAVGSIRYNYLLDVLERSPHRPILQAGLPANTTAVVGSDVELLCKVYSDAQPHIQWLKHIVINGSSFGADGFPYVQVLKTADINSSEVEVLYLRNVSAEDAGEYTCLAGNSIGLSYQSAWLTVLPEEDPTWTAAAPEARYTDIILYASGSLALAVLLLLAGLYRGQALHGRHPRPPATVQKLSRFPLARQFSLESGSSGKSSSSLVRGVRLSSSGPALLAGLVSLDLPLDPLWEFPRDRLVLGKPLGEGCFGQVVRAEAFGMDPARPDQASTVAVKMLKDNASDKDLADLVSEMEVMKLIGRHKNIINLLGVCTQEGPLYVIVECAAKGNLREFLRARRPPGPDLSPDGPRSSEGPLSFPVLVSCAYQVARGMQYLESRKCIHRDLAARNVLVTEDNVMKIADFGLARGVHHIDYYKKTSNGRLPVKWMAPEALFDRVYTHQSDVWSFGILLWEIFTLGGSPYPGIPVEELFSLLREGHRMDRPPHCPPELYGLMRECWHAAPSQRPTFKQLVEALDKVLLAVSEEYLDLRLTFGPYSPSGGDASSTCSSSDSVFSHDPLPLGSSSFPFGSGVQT
Chain of Fibroblast growth factor receptor 2 (P21802 whole entry): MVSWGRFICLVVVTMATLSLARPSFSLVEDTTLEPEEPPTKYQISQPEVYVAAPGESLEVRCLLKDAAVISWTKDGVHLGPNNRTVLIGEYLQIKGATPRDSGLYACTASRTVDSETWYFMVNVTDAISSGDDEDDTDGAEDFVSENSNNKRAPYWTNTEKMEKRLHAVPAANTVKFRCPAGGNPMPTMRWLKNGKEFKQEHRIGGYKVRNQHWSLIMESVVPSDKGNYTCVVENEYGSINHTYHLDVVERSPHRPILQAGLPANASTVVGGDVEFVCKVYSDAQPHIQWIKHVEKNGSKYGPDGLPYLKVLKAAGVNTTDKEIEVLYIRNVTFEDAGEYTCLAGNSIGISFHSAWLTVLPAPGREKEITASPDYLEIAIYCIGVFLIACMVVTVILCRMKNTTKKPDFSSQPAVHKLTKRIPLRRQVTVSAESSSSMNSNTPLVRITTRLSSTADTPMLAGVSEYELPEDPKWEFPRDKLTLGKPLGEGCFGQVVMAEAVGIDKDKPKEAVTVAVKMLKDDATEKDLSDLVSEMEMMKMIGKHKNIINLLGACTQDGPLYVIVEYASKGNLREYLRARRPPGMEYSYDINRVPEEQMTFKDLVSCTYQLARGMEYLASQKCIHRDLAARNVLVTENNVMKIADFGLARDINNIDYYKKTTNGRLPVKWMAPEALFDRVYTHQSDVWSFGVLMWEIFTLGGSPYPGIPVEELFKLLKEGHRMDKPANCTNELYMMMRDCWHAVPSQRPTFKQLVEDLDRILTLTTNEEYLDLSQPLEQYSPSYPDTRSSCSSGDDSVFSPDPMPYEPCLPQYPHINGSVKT

For `COc1ccc(S(=O)(=O)n2ccc3cnc(Nc4ccc(N5CCN(C)CC5)cc4)nc32)cc1`, the IC50 [1] was 893 nM.

For `COc1cccc(S(=O)(=O)Nc2cc(Nc3ccc(N4CCOCC4)cc3)ncc2C#N)c1`, the IC50 [1] was > 10000 nM.

`COc1cc(OC)cc(S(C)(=O)=Nc2cc(Nc3ccc(N4CCOCC4)cc3)ncc2C#N)c1` (stereo not given) showed an IC50 [1] of 2190 nM.

Work on `COc1cccc(S(=O)(=O)n2ccc3cnc(Nc4ccc(N5CCN(C)CC5)cc4)nc32)c1OC` yielded an IC50 [1] of 1340 nM.

`CN1CCN(c2ccc(Nc3ncc4ccn(S(=O)(=O)c5cccc(OC(F)(F)F)c5)c4n3)cc2)CC1` gave an IC50 [1] of 703 nM.

In the case of `CN1CCN(c2ccc(Nc3ncc4ccn(S(=O)(=O)c5ccccc5Cl)c4n3)cc2)CC1`, the IC50 [1] is reported as 33.6 nM and the IC50 (Huh-7) is reported as 451 nM.

`CN1CCN(c2ccc(Nc3ncc4ccn(S(=O)(=O)c5cccc6c5OCO6)c4n3)cc2)CC1` gave an IC50 [1] of 29.5 nM and an IC50 (Huh-7) of 534 nM.

`COc1cccc(S(=O)(=O)n2ccc3cnc(Nc4ccc(N5CCN(C)CC5)cc4)nc32)c1` showed a microsomal CLint at 50 min (in vitro [2]) of 165 µL/min/mg, an IC50 [1] of 10.4 nM and an IC50 (Huh-7) of 131 nM. For the same molecule, the CLint scaled (in vitro [3]) was 654 mL/min/kg, the half-life at 50 min (in vitro [4]) was 4.2 min and the IC50 (BaF3 [5]) was 71.8 nM. For the same molecule, the half-life at 50 min (in vitro [6]) was 39 min, the CLint scaled (in vitro [7]) was 32 mL/min/kg and the microsomal CLint at 50 min (in vitro [8]) was 35.5 µL/min/mg. For the same molecule, the IC50 (BaF3 [9]) was 534 nM and the IC50 (BaF3 [10]) was > 2000 nM.

Work on `CN1CCN(c2ccc(Nc3ncc4ccn(S(=O)(=O)c5ccccc5)c4n3)cc2)CC1` yielded an IC50 [1] of 74.7 nM.

For `COc1cccc(S(=O)(=O)c2cnc3cnc(Nc4ccc(N5CCOCC5)cc4)cn23)c1`, the IC50 [1] was 4770 nM.

With `COc1cccc(S(=O)(=O)n2ccc3cnc(Nc4ccc(CN5CCN(C)CC5)cc4)nc32)c1` the IC50 [1] was 132 nM.

With `COc1cccc(S(=O)(=O)n2ccc3cnc(Nc4ccc(N5C[C@@H](C)N[C@@H](C)C5)cc4)nc32)c1` the inhibition [11] was “Active”, the inhibition [12] was “Dose-Dependent Effect” and the IC50 [1] was 17.1 nM. For the same molecule, the IC50 [13] was 46.7 nM, the inhibition [14] was “Dose-Dependent Effect” and the inhibition [15] was “Dose-Dependent Effect”. For the same molecule, the IC50 [16] was 29.6 nM.

`C=CC(=O)N[C@H]1CCOC[C@H]1Nc1ncc2cc(-c3c(Cl)c(OC)cc(OC)c3Cl)ccc2n1` [FISOGATINIB] gave an IC50 [1] of 5.3 nM and an IC50 (Huh-7) of 45.9 nM.

For `COc1ccc(Cl)c(S(=O)(=O)n2ccc3cnc(Nc4ccc(N5CCN(C)CC5)cc4)nc32)c1`, the IC50 [1] was 29 nM and the IC50 (Huh-7) was 298 nM.

`CN1CCN(c2ccc(Nc3ncc4ccn(S(=O)(=O)c5cccc(F)c5)c4n3)cc2)CC1` showed an IC50 [1] of 60.5 nM.

Work on `COc1cccc(S(=O)(=O)n2ccc3cnc(Nc4ccc(N5CCC(N(C)C)C5)cc4)nc32)c1` (stereo not given) yielded an IC50 [1] of 41.8 nM and an IC50 (Huh-7) of 301 nM.

`COc1cccc(S(=O)(=O)c2c[nH]c3cnc(Nc4ccc(N5CCOCC5)cc4)nc23)c1` showed an IC50 [1] of 1970 nM.

`COc1cccc(S(=O)(=O)n2ccc3cnc(Nc4ccc(N5CCOCC5)cc4)cc32)c1` showed an IC50 [1] of 198 nM.

Work on `CN1CCN(c2ccc(Nc3ncc4ccn(S(=O)(=O)c5c(Cl)cccc5Cl)c4n3)cc2)CC1` yielded an IC50 [1] of 55 nM and an IC50 (Huh-7) of 377 nM.

Molecule `COc1cccc(S(=O)(=O)n2ccc3cnc(Nc4ccc(N5CCOCC5)cc4)nc32)c1` has an IC50 [1] of 114 nM.

For `COc1ccccc1S(=O)(=O)n1ccc2cnc(Nc3ccc(N4CCN(C)CC4)cc3)nc21`, the IC50 [1] was 16.1 nM and the IC50 (Huh-7) was 240 nM.

In the case of `CN1CCN(c2ccc(Nc3ncc4ccn(S(=O)(=O)c5cc(F)cc(F)c5)c4n3)cc2)CC1`, the microsomal CLint at 50 min (in vitro [2]) is reported as 319 µL/min/mg, the IC50 [1] is reported as 12.7 nM and the IC50 (Huh-7) is reported as 191 nM. For the same molecule, the CLint scaled (in vitro [3]) was 1250 mL/min/kg, the half-life at 50 min (in vitro [4]) was 4.4 min and the IC50 (BaF3 [5]) was 64 nM. For the same molecule, the half-life at 50 min (in vitro [6]) was 35.2 min, the CLint scaled (in vitro [7]) was 49.4 mL/min/kg and the microsomal CLint at 50 min (in vitro [8]) was 54.8 µL/min/mg. The IC50 (BaF3 [9]) was 376 nM and the IC50 (BaF3 [10]) was > 2000 nM.

In the case of `COc1ccc(OC)c(S(=O)(=O)n2ccc3cnc(Nc4ccc(N5CCN(C)CC5)cc4)nc32)c1`, the microsomal CLint at 50 min (in vitro [2]) is reported as 283 µL/min/mg, the IC50 [1] is reported as 8.7 nM and the IC50 (Huh-7) is reported as 244 nM. It also gave a CLint scaled (in vitro [3]) of 1110 mL/min/kg, a half-life at 50 min (in vitro [4]) of 4.9 min and an IC50 (BaF3 [5]) of 58.3 nM. For the same molecule, the half-life at 50 min (in vitro [6]) was 47.7 min, the CLint scaled (in vitro [7]) was 36.5 mL/min/kg and the microsomal CLint at 50 min (in vitro [8]) was 40.5 µL/min/mg. The IC50 (BaF3 [9]) was 405 nM and the IC50 (BaF3 [10]) was > 2000 nM.

For `CN1CCN(c2ccc(Nc3ncc4ccn(S(=O)(=O)C5CCCCC5)c4n3)cc2)CC1`, the IC50 [1] was 615 nM.

`COc1cccc(S(=O)(=O)n2ccc3cnc(Nc4ccc(N(C)CCN(C)C)cc4)nc32)c1` gave an IC50 [1] of 17.1 nM and an IC50 (Huh-7) of 811 nM.

Work on `COc1cccc(S(=O)(=O)n2ccc3cnc(Nc4ccc(C(=O)N5CCN(C)CC5)cc4)nc32)c1` yielded an IC50 [1] of 112 nM and an IC50 (Huh-7) of 449 nM.

`CN1CCN(c2ccc(Nc3ncc4ccn(S(=O)(=O)c5ccccc5OC(F)(F)F)c4n3)cc2)CC1` gave an IC50 [1] of 36.8 nM and an IC50 (Huh-7) of 444 nM.

`COc1cccc(S(=O)(=O)n2ccc3cnc(Nc4ccc(N5C[C@@H]6C[C@H]5CN6C)cc4)nc32)c1` showed a microsomal CLint at 50 min (in vitro [2]) of 106 µL/min/mg, an IC50 [1] of 47.5 nM and an IC50 (Huh-7) of 166 nM. The CLint scaled (in vitro [3]) was 416 mL/min/kg, the half-life at 50 min (in vitro [4]) was 13.1 min and the IC50 (BaF3 [5]) was 126 nM. The half-life at 50 min (in vitro [6]) was 224 min, the CLint scaled (in vitro [7]) was 6 mL/min/kg and the microsomal CLint at 50 min (in vitro [8]) was 6.4 µL/min/mg. For the same molecule, the IC50 (BaF3 [9]) was 632 nM and the IC50 (BaF3 [10]) was > 2000 nM.

In the case of `COc1cccc(S(=O)(=O)n2ccc3cnc(Nc4ccc(N5CCC(N(C)C)CC5)cc4)nc32)c1`, the IC50 [1] is reported as 13.9 nM and the IC50 (Huh-7) is reported as 310 nM.

`CN1CCN(c2ccc(Nc3ncc4ccn(S(=O)(=O)c5ccn(C)n5)c4n3)cc2)CC1` showed an IC50 [1] of 127 nM.

With `COc1cccc(S(C)(=O)=Nc2cc(Nc3ccc(N4CCOCC4)cc3)ncc2C#N)c1` (stereo not given) the IC50 [1] was 346 nM.

With `CN1CCN(c2ccc(Nc3ncc4ccn(S(=O)(=O)c5cccnc5)c4n3)cc2)CC1` the IC50 [1] was 33 nM and the IC50 (Huh-7) was 383 nM.
